Laboratory results: patent US20090018162A1, “USE OF 6-(3-CHLORO-2-FLUOROBENZYL)-1-[(2S)-1-HYDROXY-3-METHYLBUTAN-2-YL]-7-METHOXY-4-OXO-1,4-DIHYDROQUINOLINE-3-CARBOXYLIC ACID OR SALT THEREOF FOR TREATING RETROVIRUS INFECTION” (priority 2006, published 2009)
Structures can show the parent of a compound that is named as a salt. Where two headings read alike, the source gives them in different places.

Tests used:
[1] = tested on: HIV-1 macrophage-tropic virus strains
HIV-2 CDC 310319 [2] = settings: HIV-2 CDC 310319 in PBMCs
in vitro = settings: human
HIV-2 CDC 310319 [3] = test: microbe, parasite or virus in culture; settings: Human immunodeficiency virus 2, PBMC
[4] = tested on: HIV-1 macrophage-tropic virus strains; test: microbe, parasite or virus in culture; settings: in Homo sapiens
[5] = tested on: drug-resistant HIV-1 isolates; test: Anti-HIV efficacy in fresh human PBMCs, drug-resistant HIV-1 isolates; settings: for IC50: Human immunodeficiency virus 1, PBMC, in Homo sapiens
human PBMCs [6] = test: MTS staining for PBMC viability (cytotoxicity); settings: read-out: TC50, PBMCs, MTS
[7] = tested on: human monocytes/macrophages; test: MTS cytotoxicity in monocyte/macrophage cultures; format: cell-based; settings: 7 days
Experimental: (§1) Anti-HIV Efficacy Evaluation in Fresh Human Monocyte/Macrophage. Monocytes/macrophages were allowed to adhere to the interior 60 wells of a 96 well flat bottomed plate for 2 to 18 hours at 37° C., 5% CO2. Following 6 to 14 days in culture, the monocyte/macrophage cultures were washed 3 times to remove any non-adherent cells and serially diluted test compounds were added followed by the addition of a pre-titered amount of HIV. Cultures were washed a final time by media removal 24 hours post infection, fresh compound added and the cultures continued for an additional six days. […] At assay termination, virus replication was measured by collecting cell-free supernatant samples which were analyzed for HIV p24 antigen content using a commercially available p24 ELISA assay (Coulter). […] MTS staining for PBMC viability to measure cytotoxicity. […] The mitochondrial enzymes of metabolically active cells metabolize MTS to yield a soluble formazan product. This allows the rapid quantitative analysis of cell viability and compound cytotoxicity. […] At termination of the assay, 20 μL of MTS reagent was added per well. The microtiter plates were then incubated 4-6 hrs at 37° C. The incubation intervals were chosen based on empirically determined times for optimal dye reduction. […] Data analysis.

[8] = MTS cytotoxicity in monocyte/macrophage cultures; format: cell-based; settings: human, TC50
Experimental: as §1

human PBMCs [9] = settings: 7 days
HIV-1 clinical isolates [10] = tested on: HIV-1 clinical isolates
HIV-1 clinical isolates [11] = test: microbe, parasite or virus in culture; settings: Human immunodeficiency virus 1, PBMC

In the case of `Cc1c(O)cccc1C(=O)N[C@@H](CSc1ccccc1)[C@H](O)CN1C[C@H]2CCCC[C@H]2C[C@H]1C(=O)NC(C)(C)C` [Nelfinavir, nelfinavir mesylate], the “TI (TC50/IC50)” value ([1]; HIV-1 ADA in macrophages) is reported as greater than 221.2, the “TI (TC50/IC50)” value ([1]; HIV-1 Ba-L in macrophages) is reported as greater than 275.5 and the “TI (TC50/IC50)” value (HIV-2 CDC 310319 [2]) is reported as greater than 62.1. For the same molecule, the CC50 (in vitro) was greater than 1000 nM, the CC50 at 7 days (in vitro) was greater than 1000 nM and the IC50 (HIV-2 CDC 310319 [3]) was 16.1 nM. The IC50 ([4]; Human immunodeficiency virus 1, BAL, Macrophage, HIV-1 Ba-L in macrophages) was 36.3 nM, the IC50 ([4]; Human immunodeficiency virus 1, Macrophage, HIV-1 ADA in macrophages) was 45.2 nM and the “TI (TC50/IC50)” value ([5]; HIV-1 52-52 in PBMCs) was greater than 10.5. For the same molecule, the “TI (TC50/IC50)” value ([5]; HIV-1 144-44 in PBMCs) was greater than 6.05, the “TI (TC50/IC50)” value ([5]; HIV-1 1064-52 in PBMCs) was greater than 1.19 and the “TI (TC50/IC50)” value ([5]; HIV-1 MDR 807 in PBMCs) was greater than 7.41. For the same molecule, the IC50 ([5]; HIV-1 52-52 (protease-inhibitor resistant) in PBMCs) was 95 nM, the IC50 ([5]; against several viruses (e.g., MDR 1385, MDR 3761) in PBMCs) was greater than 1000 nM and the IC50 ([5]; multi-drug-resistant HIV-1 MDR 769 in PBMCs) was greater than 1000 nM. For the same molecule, the IC50 ([5]; multi-drug-resistant HIV-1 MDR 807 in PBMCs) was 135 nM, the IC50 ([5]; multi-drug-resistant HIV-1 MDR 1385 in PBMCs) was greater than 1000 nM and the IC50 ([5]; multi-drug-resistant HIV-1 MDR 3761 in PBMCs) was greater than 1000 nM. For the same molecule, the CC50 (human PBMCs [6]; MDR 807 assay) was greater than 1000 nM, the CC50 (human PBMCs [6]; MDR 1385 assay) was greater than 1000 nM and the CC50 (human PBMCs [6]; MDR 3761 assay) was greater than 1000 nM. The CC50 [7] was greater than 10000 nM, the CC50 at 7 days [8] was greater than 10000 nM and the CC50 (human PBMCs [9]) was greater than 1000 nM. For the same molecule, the “TI (TC50/IC50)” value (HIV-1 clinical isolates [10]; HIV-1 96USHIPS7 in PBMCs) was greater than 38.8, the “TI (TC50/IC50)” value (HIV-1 clinical isolates [10]; HIV-1 BFC01 in PBMCs) was greater than 1010.1 and the “TI (TC50/IC50)” value (HIV-1 clinical isolates [10]; HIV-1 BR/92/021 in PBMCs) was greater than 14.2. For the same molecule, the “TI (TC50/IC50)” value (HIV-1 clinical isolates [10]; HIV-1 BR/92/025 in PBMCs) was greater than 9901.0, the “TI (TC50/IC50)” value (HIV-1 clinical isolates [10]; HIV-1 BR/93/017 in PBMCs) was greater than 487.8 and the “TI (TC50/IC50)” value (HIV-1 clinical isolates [10]; HIV-1 BR/93/020 in PBMCs) was greater than 61.0. The “TI (TC50/IC50)” value (HIV-1 clinical isolates [10]; HIV-1 BR/93/022 in PBMCs) was greater than 49.8, the “TI (TC50/IC50)” value (HIV-1 clinical isolates [10]; HIV-1 CMU 02 in PBMCs) was greater than 44.1 and the “TI (TC50/IC50)” value (HIV-1 clinical isolates [10]; HIV-1 JV 1083 in PBMCs) was greater than 71.4. For the same molecule, the “TI (TC50/IC50)” value (HIV-1 clinical isolates [10]; HIV-1 RW/92/016 in PBMCs) was greater than 74.6, the “TI (TC50/IC50)” value (HIV-1 clinical isolates [10]; HIV-1 UG/92/046 in PBMCs) was greater than 36.1 and the IC50 (HIV-1 clinical isolates [11]; HIV-1 96USHIPS7 (subtype /B, R5) in PBMCs) was 25.8 nM. For the same molecule, the IC50 (HIV-1 clinical isolates [11]; HIV-1 BR/92/021 (subtype B/B, R5) in PBMCs) was 70.5 nM, the IC50 (HIV-1 clinical isolates [11]; HIV-1 BR/93/017 (subtype B/B, R5) in PBMCs) was 2.05 nM and the IC50 (HIV-1 clinical isolates [11]; HIV-1 BR/93/020 (subtype F/F, R5/X4) in PBMCs) was 16.4 nM. It also gave an IC50 (HIV-1 clinical isolates [11]; HIV-1 BR/93/022 (subtype /B, R5) in PBMCs) of 20.1 nM, an IC50 (HIV-1 clinical isolates [11]; HIV-1 CMU 02 (subtype /EA, X4) in PBMCs) of 22.7 nM and an IC50 (HIV-1 clinical isolates [11]; HIV-1 JV 1083 (subtype /G, R5) in PBMCs) of 14 nM. It also gave an IC50 (HIV-1 clinical isolates [11]; HIV-1 RW/92/016 (subtype A/A, R5) in PBMCs) of 13.4 nM and an IC50 (HIV-1 clinical isolates [11]; HIV-1 UG/92/046 (subtype D/D, X4) in PBMCs) of 27.7 nM.
